What was measured:
[1] = system: southern crabgrass; assay: Test Example 5: herbicidal effect by foliage application, plastic box (Table 20, symbol F); format: in vivo, southern crabgrass (Digitaria ciliaris); details: foliage application, 320 g/ha, 3 weeks after application
In short: (§1)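 Plants sown in sterilized diluvial soil and grown 14 days in a greenhouse at 25° C to 30° C, then sprayed on the foliage with the compound's emulsion diluted in water to a predetermined herbicide amount. Injury to weeds and crops scored three weeks after application on a visual rating scale.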

[2] = system: Chinese sprangletop; assay: Test Example 3: herbicidal effect by foliage application, Wagner pot (Table 18, symbol D); format: in vivo, chinese sprangletop (Leptochloa chinensis); details: 320 g/ha
In short: (§2)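 Plants were sown in alluvial soil held under 0.1–0.5 cm standing water and grown 14 days in a greenhouse at 25–30 °C. An emulsifiable formulation, water-diluted to the set dose, was then sprayed onto the foliage, and effects were scored three weeks later using previously defined criteria.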

[3] = system: oval-leafed pondweed; assay: Test Example 1: herbicidal activity, application before weed generation under submerged conditions (Table 16, symbol C); format: in vivo, oval-leafed pondweed (Monochoria vaginalis); details: 320 g/ha applied herbicide
In short: (§3)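 Emulsion formulation, water-diluted to set dose, was put onto the flooded surface (4 cm depth, alluvial soil) the same day weeds were sown and 2.5-leaf rice transplanted. After 3 weeks at 25-30 °C under glass, each species was rated 0 (≤5% kill) to 5 (≥90% kill).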

[4] = system: green foxtail; assay: Test Example 4: herbicidal effect by soil treatment (Table 19, symbol G); format: in vivo, green foxtail (Setaria viridis); details: AAH 320 g/ha
In short: (§4)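 Three weeks of greenhouse growth at 25° C. to 30° C. followed a uniform surface spray of water-diluted emulsion at a predetermined herbicide amount. Seeds had been sown beforehand under about 1.5 cm of sterilized diluvial soil. Grading followed criteria set out in an earlier test.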

[5] = system: Japanese bulrush; assay: Test Example 1: herbicidal activity, application before weed generation under submerged conditions (Table 16, symbol B); format: in vivo, Japanese bulrush (Schoenoplectus juncoides); details: 320 g/ha applied herbicide
In short: as §3

[6] = system: barnyard grass; assay: Test Example 4: herbicidal effect by soil treatment (Table 19, symbol H); format: in vivo, barnyard grass (Echinochloa crus-galli); details: AAH 320 g/ha
In short: as §4

[7] = system: late watergrass; assay: Test Example 2: herbicidal activity, application during weed generation under submerged conditions (Table 17, symbol A); format: in vivo, late watergrass (Echinochloa oryzicola); details: AAH 320 g/ha; application during weed generation, submerged conditions
Method: (§5) [Test Example 2] Herbicidal Activity Test by Application during Weed Generation under Submerged Conditions After alluvial soil was placed into 1/10000 are of Wagner pot, water was poured and mixed to form a submerged condition having a water depth of 4 cm. Seeds of late watergrass, Japanese bulrush, and oval-leafed pondweed were sowed in a mixed manner in the aforementioned pot, and the pot was placed in a greenhouse at 25° C. to 30° C. for growth of the plants. When late watergrass, Japanese bulrush, and oval-leafed pondweed were grown to one leaf stage to two leaf stage, the emulsion agent of the compound of the present invention prepared according to Formulation Example 2 was diluted with water so as to achieve a predetermined herbicide amount, and the diluted emulsion agent was applied to the surface of the water. Three weeks after the herbicide application, the effect of the herbicide on each plant was evaluated according to the criteria of Test Example 1.

[8] = system: persian speedwell; assay: Test Example 4: herbicidal effect by soil treatment (Table 19, symbol R); format: in vivo, Persian speedwell (Veronica persica); details: AAH 320 g/ha
In short: as §4

[9] = system: late watergrass; assay: Test Example 1: herbicidal activity, application before weed generation under submerged conditions (Table 16, symbol A); format: in vivo, late watergrass (Echinochloa oryzicola); details: 320 g/ha applied herbicide
In short: as §3

[10] = system: Italian ryegrass; assay: Test Example 5: herbicidal effect by foliage application, plastic box (Table 20, symbol K); format: in vivo, Italian ryegrass (Lolium multiflorum); details: foliage application, 320 g/ha, 3 weeks after application
In short: as §1

[11] = system: blackgrass; assay: Test Example 5: herbicidal effect by foliage application, plastic box (Table 20, symbol J); format: in vivo, blackgrass (Alopecurus myosuroides); details: foliage application, 320 g/ha, 3 weeks after application
In short: as §1

[12] = system: Japanese bulrush; assay: Test Example 2: herbicidal activity, application during weed generation under submerged conditions (Table 17, symbol B); format: in vivo, Japanese bulrush (Schoenoplectus juncoides); details: AAH 320 g/ha; application during weed generation, submerged conditions
Method: as §5

[13] = system: barnyard grass; assay: Test Example 3: herbicidal effect by foliage application, Wagner pot (Table 18, symbol H); format: in vivo, barnyard grass (Echinochloa crus-galli); details: 320 g/ha
In short: as §2

[14] = system: rice flat sedge; assay: Test Example 3: herbicidal effect by foliage application, Wagner pot (Table 18, symbol E); format: in vivo, rice flat sedge (Cyperus iria); details: 320 g/ha
In short: as §2

[15] = system: redroot pigweed; assay: Test Example 4: herbicidal effect by soil treatment (Table 19, symbol N); format: in vivo, redroot pigweed (Amaranthus retroflexus); details: AAH 320 g/ha
In short: as §4

[16] = system: barnyard grass; assay: Test Example 5: herbicidal effect by foliage application, plastic box (Table 20, symbol H); format: in vivo, barnyard grass (Echinochloa crus-galli); details: foliage application, 320 g/ha, 3 weeks after application
In short: as §1

[17] = system: lambsquarters; assay: Test Example 5: herbicidal effect by foliage application, plastic box (Table 20, symbol O); format: in vivo, lambsquarters (Chenopodium album); details: foliage application, 320 g/ha, 3 weeks after application
In short: as §1

[18] = system: wild oat; assay: Test Example 5: herbicidal effect by foliage application, plastic box (Table 20, symbol I); format: in vivo, wild oat (Avena fatua); details: foliage application, 320 g/ha, 3 weeks after application
In short: as §1

[19] = system: Italian ryegrass; assay: Test Example 4: herbicidal effect by soil treatment (Table 19, symbol K); format: in vivo, Italian ryegrass (Lolium multiflorum); details: AAH 320 g/ha
In short: as §4

[20] = system: velvetleaf; assay: Test Example 5: herbicidal effect by foliage application, plastic box (Table 20, symbol M); format: in vivo, velvetleaf (Abutilon theophrasti); details: foliage application, 320 g/ha, 3 weeks after application
In short: as §1

[21] = system: blackgrass; assay: Test Example 4: herbicidal effect by soil treatment (Table 19, symbol J); format: in vivo, blackgrass (Alopecurus myosuroides); details: AAH 320 g/ha
In short: as §4

[22] = system: wild oat; assay: Test Example 4: herbicidal effect by soil treatment (Table 19, symbol I); format: in vivo, wild oat (Avena fatua); details: AAH 320 g/ha
In short: as §4

[23] = system: green foxtail; assay: Test Example 5: herbicidal effect by foliage application, plastic box (Table 20, symbol G); format: in vivo, green foxtail (Setaria viridis); details: foliage application, 320 g/ha, 3 weeks after application
In short: as §1

[24] = system: velvetleaf; assay: Test Example 4: herbicidal effect by soil treatment (Table 19, symbol M); format: in vivo, velvetleaf (Abutilon theophrasti); details: AAH 320 g/ha
In short: as §4

[25] = system: chickweed; assay: Test Example 4: herbicidal effect by soil treatment (Table 19, symbol P); format: in vivo, common chickweed (Stellaria media); details: AAH 320 g/ha
In short: as §4

[26] = system: persian speedwell; assay: Test Example 5: herbicidal effect by foliage application, plastic box (Table 20, symbol R); format: in vivo, Persian speedwell (Veronica persica); details: foliage application, 320 g/ha, 3 weeks after application
In short: as §1

[27] = system: lambsquarters; assay: Test Example 4: herbicidal effect by soil treatment (Table 19, symbol O); format: in vivo, lambsquarters (Chenopodium album); details: AAH 320 g/ha
In short: as §4

[28] = system: southern crabgrass; assay: Test Example 4: herbicidal effect by soil treatment (Table 19, symbol F); format: in vivo, southern crabgrass (Digitaria ciliaris); details: AAH 320 g/ha
In short: as §4

## C=CCOCc1ccc(-c2sc3ccccc3c2-c2c(O)c(C)nn(C)c2=O)cc1 [1-241]
[1]
  effect on southern crabgrass (F): 2 (Herbicidal rate of 20% or more and less than 40%)
[2]
  herbicidal effect on D (Chinese sprangletop), rating 0-5: 3 (Herbicidal rate of 40% or more and less than 70%)
[3]
  Herbicidal effect on C: oval-leafed pondweed (grade 0-5): 2 (Herbicidal rate of 20% or more and less than 40%)
[4]
  G: green foxtail, herbicidal effect rating: 3 (Herbicidal rate of 40% or more and less than 70%)
[5]
  Herbicidal effect on B: Japanese bulrush (grade 0-5): 3 (Herbicidal rate of 40% or more and less than 70%)
[6]
  H: barnyard grass, herbicidal effect rating: 3 (Herbicidal rate of 40% or more and less than 70%)
[7]
  herbicidal effect rating, A: late watergrass: 3 (Herbicidal rate of 40% or more and less than 70%)
[8]
  R: persian speedwell, herbicidal effect rating: 5 (Herbicidal rate of 90% or more (almost completely withered))
[9]
  Herbicidal effect on A: late watergrass (grade 0-5): 0 (Herbicidal rate of 5% or less (almost no effect))
[10]
  effect on Italian ryegrass (K): 5 (Herbicidal rate of 90% or more (almost completely withered))
[11]
  effect on blackgrass (J): 3 (Herbicidal rate of 40% or more and less than 70%)
[12]
  herbicidal effect rating, B: Japanese bulrush: 3 (Herbicidal rate of 40% or more and less than 70%)
[13]
  herbicidal effect on H (barnyard grass), rating 0-5: 5 (Herbicidal rate of 90% or more (almost completely withered))
[14]
  herbicidal effect on E (rice flat sedge), rating 0-5: 4 (Herbicidal rate of 70% or more and less than 90%)
[15]
  N: redroot pigweed, herbicidal effect rating: 5 (Herbicidal rate of 90% or more (almost completely withered))
[16]
  effect on barnyard grass (H): 4 (Herbicidal rate of 70% or more and less than 90%)
[17]
  effect on lambsquarters (O): 4 (Herbicidal rate of 70% or more and less than 90%)
[18]
  effect on wild oat (I): 0 (Herbicidal rate of 5% or less (almost no effect))
[19]
  K: Italian ryegrass, herbicidal effect rating: 3 (Herbicidal rate of 40% or more and less than 70%)
[20]
  effect on velvetleaf (M): 5 (Herbicidal rate of 90% or more (almost completely withered))
[21]
  J: blackgrass, herbicidal effect rating: 2 (Herbicidal rate of 20% or more and less than 40%)
[22]
  I: wild oat, herbicidal effect rating: 0 (Herbicidal rate of 5% or less (almost no effect))
[23]
  effect on green foxtail (G): 5 (Herbicidal rate of 90% or more (almost completely withered))
[24]
  M: velvetleaf, herbicidal effect rating: 0 (Herbicidal rate of 5% or less (almost no effect))
[25]
  P: chickweed, herbicidal effect rating: 3 (Herbicidal rate of 40% or more and less than 70%)
[26]
  effect on persian speedwell (R): 5 (Herbicidal rate of 90% or more (almost completely withered))
[27]
  O: lambsquarters, herbicidal effect rating: 4 (Herbicidal rate of 70% or more and less than 90%)
[28]
  F: southern crabgrass, herbicidal effect rating: 1 (Herbicidal rate of 5% or more and less than 20%)
